These results are taken from ChEMBL document CHEMBL5244229, “Thiazole-containing compounds as therapeutic targets for cancer therapy” (Eur J Med Chem, 2020).

In brackets after ≈: the same amount, converted by molar mass.

The subject of assay [1] is HepG2. Put plainly: Anticancer activity against human HepG2 cells. In kind it is functional, cell-based.
Assay [2] concerns MCF7. Briefly: Antitumor activity against human MCF7 cells. In kind it is functional, cell-based.
The subject of assay [3] is MCF7. Briefly: Cytotoxicity against human MCF7 cells. In kind it is functional, cell-based.
In assay [4] the test system is HCT-116. Briefly: Anticancer activity against human HCT-116 cells. In kind it is functional, cell-based.
A further assay relates to MV4-11. Put plainly: Anticancer activity against human MV4-11 cells. In kind it is functional, cell-based.
Assay [5] has as its target Epidermal growth factor receptor (Homo sapiens, UniProt P00533). Put plainly: Inhibition of EGFR (unknown origin).
For another assay, the system named is HeLa. Briefly: Cytotoxicity against human HeLa cells. In kind it is functional, cell-based.
A further assay relates to MDA-MB-435. Put plainly: Cytotoxicity against human MDA-MB-435 cells. In kind it is functional, cell-based.
Assay [6] concerns HepG2. Put plainly: Cytotoxicity against human HepG2 cells assessed as reduction in cell viability measured after 48 hrs by MTS assay. Conditions: HepG2, 48 h. In kind it is functional, cell-based. (In general: Formazan colour is commonly taken as a measure of viable cells.)
Assay [7] concerns HCT-116. Briefly: Antiproliferative activity against human HCT-116 cells assessed as reduction in cell viability. In kind it is functional, cell-based.
Another assay concerns HEK293. Briefly: Antiproliferative activity against human HEK293 cells. In kind it is functional.
The test system of another assay is A549. Briefly: Antiproliferative activity against human A549 cells. In kind it is functional, cell-based.
Assay [8] relates to MCF7. Briefly: Anticancer activity against human MCF7 cells. In kind it is functional, cell-based.
Assay [9] has as its system HepG2. Briefly: Cytotoxicity against human HepG2 cells assessed as reduction in cell viability incubated for 24 hrs by WST-1 assay. In kind it is functional, cell-based. Conditions: HepG2, 24 h.
Assay [10] deals with HepG2. Put plainly: Cytotoxicity against human HepG2 cells. In kind it is functional, cell-based.
Another assay relates to Colon cell line. Put plainly: Cytotoxicity against human Colon cell line. In kind it is functional, cell-based.
Assay [11] has as its system HepG2. Put plainly: Antitumor activity against human HepG2 cells. In kind it is functional, cell-based.

Chain of Epidermal growth factor receptor (P00533 whole entry): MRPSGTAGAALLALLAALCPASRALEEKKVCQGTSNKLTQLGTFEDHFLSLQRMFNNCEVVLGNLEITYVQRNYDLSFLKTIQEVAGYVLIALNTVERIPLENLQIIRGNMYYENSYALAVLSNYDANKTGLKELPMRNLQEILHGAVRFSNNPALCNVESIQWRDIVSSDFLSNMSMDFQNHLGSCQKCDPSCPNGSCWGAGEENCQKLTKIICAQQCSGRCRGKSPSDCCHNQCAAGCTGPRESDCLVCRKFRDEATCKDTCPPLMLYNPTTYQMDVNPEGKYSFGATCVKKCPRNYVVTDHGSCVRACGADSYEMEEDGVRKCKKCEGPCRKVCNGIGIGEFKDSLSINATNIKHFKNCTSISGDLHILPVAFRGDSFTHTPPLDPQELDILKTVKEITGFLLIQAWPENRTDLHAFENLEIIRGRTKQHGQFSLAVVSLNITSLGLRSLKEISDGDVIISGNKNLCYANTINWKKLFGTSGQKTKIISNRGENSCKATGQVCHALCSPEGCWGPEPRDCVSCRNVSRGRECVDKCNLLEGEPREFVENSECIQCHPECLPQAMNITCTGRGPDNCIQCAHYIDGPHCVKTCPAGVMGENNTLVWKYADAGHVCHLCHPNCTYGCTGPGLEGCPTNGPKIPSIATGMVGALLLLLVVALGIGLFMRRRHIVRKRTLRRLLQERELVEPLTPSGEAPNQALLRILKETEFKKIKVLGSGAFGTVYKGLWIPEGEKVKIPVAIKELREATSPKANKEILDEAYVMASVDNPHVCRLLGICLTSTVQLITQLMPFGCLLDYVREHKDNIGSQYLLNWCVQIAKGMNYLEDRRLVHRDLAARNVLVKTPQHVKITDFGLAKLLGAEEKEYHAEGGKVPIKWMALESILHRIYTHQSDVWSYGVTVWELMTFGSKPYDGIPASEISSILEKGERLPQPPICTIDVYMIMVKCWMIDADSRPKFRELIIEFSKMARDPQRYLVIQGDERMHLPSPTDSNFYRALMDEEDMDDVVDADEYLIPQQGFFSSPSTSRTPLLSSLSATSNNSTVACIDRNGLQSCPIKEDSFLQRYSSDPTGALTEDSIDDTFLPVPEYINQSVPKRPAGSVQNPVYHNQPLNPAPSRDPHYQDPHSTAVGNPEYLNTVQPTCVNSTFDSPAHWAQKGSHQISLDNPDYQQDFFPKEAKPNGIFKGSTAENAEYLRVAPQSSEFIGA

One may read the IC50 as the midpoint of a concentration-inhibition curve. Consider `C/C(=N\NC(=O)c1sc(-c2ccccc2)nc1C)C1=NN(C)C(/N=N/C(=O)c2sc(-c3ccccc3)nc2-c2ccc(C)cc2)C1` (stereo unspecified), for which half-maximal inhibition in the assay with HepG2 [1] (IC50) required 1.61 µg/mL. Compound `O=C1N/C(=N/c2ccc(-c3nc4ccccc4o3)cc2)S/C1=C/c1ccc(Cl)cc1` registered an IC50 with MCF7 [2] of 19 nM.

Take `CC(=O)Nc1ccc(NC(=O)/C(C#N)=C2\SC=C(c3ccccc3)N2c2ccccc2)cc1`: in the assay with MCF7 [3], the IC50 is 9.3 µg/mL (≈ 20.6 µM). In the case of `N#Cc1ccc(S(=O)(=O)Nc2ccc(-c3csc(N/N=C/c4ccc(N(CCCl)CCCl)cc4)n3)cc2)cc1`, the IC50 was 3.02 µg/mL (≈ 5.04 µM) in the assay with HCT-116 [4] and 2170 nM with MV4-11. With `CC(C)=NNc1nc(-c2ccc(Cl)cc2)cs1`, half-maximal inhibition in assay [5] (IC50) required 2000 nM. Consider `CC1=C(C(=O)Nc2nc(-c3ccccc3)cs2)C(c2ccc([N+](=O)[O-])cc2)C(C(=O)Nc2nc(-c3ccccc3)cs2)=C(C)N1`, for which, in the assay with HeLa, the midpoint of inhibition, the IC50, lay at 3 nM. In the assay on MDA-MB-435, `Nc1nc(-c2ccc(Oc3ccc(Cl)c(Cl)c3)cc2)cs1` gave an IC50 of 759 nM. `COc1ccc(/C=C(/C#N)c2nc(-c3cc4ccccc4oc3=O)cs2)cc1`: the IC50 in the assay on HepG2 [6] came to 2330 nM. The compound `Cc1ccc(-c2nc(C(=O)Nc3cccc(Cl)c3)cs2)cc1` yielded an IC50 in the assay on HepG2 [1] of 11.6 µM.

What is called GI50 is the concentration giving 50% growth inhibition. A lower GI50 goes with greater sensitivity of the cells. In the case of `CCCCCCCC(=O)SCC/C=C/[C@@H]1CC(=O)NCc2nc(cs2)C2=N[C@@](C)(CS2)C(=O)N[C@@H](C(C)C)C(=O)O1` [LARGAZOLE], the IC50 in the assay with HCT-116 [7] came to 390 nM. Also, the GI50 with HEK293 is above 100 µM; with A549, 1460 nM. `Cc1c(C(=O)Nc2ccccc2)s/c(=N\NC(=O)c2cnc(-c3ccccc3)s2)n1-c1ccccc1` displayed an IC50 with HepG2 [1] of 1.98 µg/mL. Compound `C/C(=N/N=c1/[nH]c(-c2ccccc2)c(/N=N/c2ccccc2)s1)[C@H]1CC[C@H]2[C@@H]3CCC4=CC(=O)CC[C@]4(C)[C@H]3CC[C@]12C` had an IC50 in the assay on MCF7 [8] of 5.28 µM.

On to `COc1cc(C(=O)c2csc(-c3ccc4[nH]ccc4c3)n2)cc(OC)c1OC`, for which it took 8 nM to reach half-maximal inhibition in [5] (IC50). For `CCCCCCCC(=O)SCC/C=C/[C@@H]1CC(=O)NCc2nc(cs2)C2=N[C@@](C)(CS2)C(=O)N[C@@H](c2ccccc2)C(=O)O1`, the IC50 in the assay on HCT-116 [7] is 390 nM. Also, the GI50 in the assay on HEK293 was above 100 µM; in the assay on A549, 1460 nM. Regarding `C/C(=N/Nc1nc(C)c(/N=N/c2ccccc2)s1)c1sc(N)nc1C`, in the assay on HepG2 [9], the IC50 came to 840 nM.

One may read the CC50 as the concentration at which the toxic effect on the cells reaches its halfway point. A low value points to greater toxicity to the cells. Turning to `Cc1nc(C(Cl)(Cl)S(=O)(=O)c2ccc(Cl)cc2)c([N+](=O)[O-])s1`, in the assay with HepG2 [10], the CC50 was below 2500 nM. Turning to `O=C1NC(=O)/C(=C/c2ccccc2Cl)S1`, the IC in the assay on Colon cell line was found to be 10 µg/mL.

In the case of `COc1cccc2c1C(=O)c1c(O)c3c(c(O)c1C2=O)C[C@@](O)(C(=O)CO)C[C@@H]3O[C@H]1C[C@H](N)[C@H](O)[C@H](C)O1.Cl` [DOXORUBICIN HYDROCHLORIDE], in the assay on HeLa, the GI50 is below 80 µg/mL. In turn, `CC(=O)Nc1ccc(NC(=O)/C(C#N)=C2\SC=C(C)N2c2ccccc2)cc1` showed an IC50 in the assay with MCF7 [3] of 6.9 µg/mL (≈ 17.7 µM). On to `Cc1ccc(-c2nc(C(=O)Nc3ccc([N+](=O)[O-])cc3)cs2)cc1`, for which the IC50 in the assay with HepG2 [1] turned out to be 10.8 µM; with Colon cell line (Homo sapiens, Colon cell line), 10.8 µM. Take `C/C(=N/Nc1nc(C)c(/N=N/c2ccccc2)s1)c1nnn(-c2ccccc2)c1C`: the values for the IC50 in the assay with HepG2 [11] and with MCF7 [2] were 3410 nM and 1120 nM, respectively. In [5], `COc1cc(C(=NC#N)c2csc(-c3ccccc3)n2)cc(OC)c1OC` showed an IC50 of 20 nM. With `CCOC(=O)c1nn(-c2ccc(Cl)cc2Cl)/c(=N/NC(=O)c2sc(-c3ccccc3)nc2C)s1`, the IC50 with HepG2 [11] stood at 820 nM. In assay [5], `CCOC(=O)c1csc(NC(=S)Nc2ccc(Cl)cc2)n1` displayed an IC50 of 10100 nM.
